Entries after “also recorded” stand apart in the source; their conditions may differ.
Legend:
Format in all cases: cell-based, human
JEG-3 cells [1] = assay: Proliferation, change in confluence 0-24 h (IncuCyte Zoom, HTTS); conditions: for minimal effective concentration: read-out: Prolif ↓, lowest concentration at which the mean response value exceeded the mean control value ± 2*SD (rough binning); for EC50: four-parameter fit, estimates meeting inclusion criteria; for cellular proliferation relative to vehicle control (rough binning): after 24 h, in at least one concentration
Description: (§1) JEG-3 human choriocarcinoma trophoblastic cells (American Type Culture Collection, VA, United States) were maintained in sterile-filtered Minimum Essential Media (MEM) supplemented with L-glutamine and phenol red (Thermo Fisher Scientific, MA, United States), 10% (v/v) heat-inactivated BenchMark Fetal Bovine Serum (Gemini Bio, CA, United States), 1% (v/v) sodium pyruvate (Thermo Fisher Scientific, MA, United States), and 1% (v/v) penicillin streptomycin (Sigma Aldrich, MO, United States). Cells were maintained in an incubator at 37°C with 5% CO2. JEG-3 cells were cultured in 10 cm tissue culture plates and cell passage numbers were recorded.
(§2) A total of 42 perfluoroalkyl substances (PFAS) were evaluated (Supplementary Table S1 contains source and purity). PFAS stock solutions were maintained in 100% methanol as previous work has shown certain PFAS degrade when stored in dimethyl sulfoxide (DMSO; [Gaballah et al., 2020]). […] The vehicle control group consisted of 97.5% media + 2.5% methanol to match the concentration of methanol in the media at the highest PFAS concentration tested (500 µM). Menadione (50–500 µM) was used as a positive control for cytotoxicity assessment. PFAS were de-identified and assigned random numbers to eliminate bias. Chemical exposure plate maps were designed so that all experimental conditions were tested in at least technical duplicates per plate. The outer edges of each plate received media alone and were excluded from all analyses to avoid edge effects. Each plate map included 14 technical replicates of the vehicle control group and 14 technical replicates of media only. Biological replicates were defined as separate 384 well plates tested on separate days using different cell passages. The experimental workflow is depicted in Supplementary Figure S1.
(§3) JEG-3 cells were counted using a Z2 Coulter Particle Counter (Beckman Coulter, CA, United States) and seeded at a density of 2,500 cells per well in black-walled, clear bottom 384 well plates (Corning, #3764) and allowed to adhere overnight. Approximately 24 h later, 384 well plates were imaged using an IncuCyte Zoom live cell imager (Essen BioScience Inc., MI, United States) to obtain baseline cellular confluence measurements prior to chemical dosing (0 h). Media was removed from wells and replaced with fresh media containing chemical treatments (exposure media) using a Viaflo liquid handling device (Integra Biosciences, NH, United States). Within 30 min of exposure media application, plates were again imaged for cellular confluence using the IncuCyte Zoom. Plates were incubated with exposure media for 24 h and then imaged again using the IncuCyte Zoom (24 h).
Plate well bottom images were evaluated using automated cell masking. The automated cell masking program was developed using IncuCyte Zoom base software. Cell masking parameters were defined using a training set of JEG-3 cell images obtained prior to conducting the experiments and following IncuCyte Zoom software recommendations. Briefly, the training images were obtained from cell culture plates with varying levels of JEG-3 cellular confluence (ranging from ∼15% confluent to ∼95% confluent). Parameters for the automated cell masking were first manually set by an experimenter for 3-6 images of low (∼15–30%), medium (∼30–70%), and high confluence (∼70% or greater). The training images were then evaluated by the automated masking program and manually checked to ensure the parameters were sufficiently strict to ignore background (e.g., blank space on the plate well bottom) but adequately sensitive to detect cell borders. The masking program was then implemented on the experimental plates to obtain a baseline cellular confluence measurement at 0 h and a second confluence measurement at 24 h. […]

JEG-3 cells [2] = assay: CellTiter-Glo luminescent cell viability assay (HTTS); conditions: for Viability ↓, lowest concentration at which the mean response value exceeded the mean control value ± 2*SD (rough binning) / Viability ↑, lowest concentration at which the mean response value exceeded the mean control value ± 2*SD (rough binning): 24 h; for Viability ↓, lowest concentration at which the mean response value exceeded the mean control value ± 2*SD (rough binning): decrease; for cell viability relative to vehicle control (rough binning): after 24 h, in at least one concentration; for Viability ↑, lowest concentration at which the mean response value exceeded the mean control value ± 2*SD (rough binning): increase
Description: as §1, §2, §3
In the same plate evaluated for mitochondrial membrane potential, cell viability measures were duplexed using the CellTiter-Glo (CTG) Luminescent Cell Viability Assay (Promega, WI, United States). CTG reagent was added to each well at a volume of 20 µl. The plate was left at room temperature to incubate for 5 min and then 20 µl from each well was transferred to a low-volume, round-bottom, white 384 well plate (Corning, NY, United States). The CTG reagent lyses cellular and mitochondrial membranes and binds to adenosine triphosphate (ATP) released by cells, which produces a luminescence signal. The intensity of the luminescence was considered a proxy measure for the number of live cells in a well. The luminescence intensities were measured using the CLARIOstar plate reader.
HTTS data were analyzed using a custom data analysis script in R v 1.2.5019 ([R Core Team, 2019]). Briefly, raw data points corresponding to the confluence measurements at 0 and 24 h, the fluorescence intensities corresponding to MMP, and the relative luminescence units (RLU) corresponding to cell viability were imported directly from Microsoft Excel into the R programming environment, RStudio. Separate plates run on separate days using different JEG-3 passages were considered as biologic replicates. […]

JEG-3 cells [3] = assay: Mitochondrial membrane potential, JC-10 assay (HTTS); conditions: for minimal effective concentration: read-out: MMP ↓, lowest concentration at which the mean response value exceeded the mean control value ± 2*SD (rough binning); for MMP relative to vehicle control (rough binning): after 24 h, in at least one concentration; for MMP ↓, lowest concentration at which the mean response value exceeded the mean control value ± 2*SD (rough binning): 24 h, decrease
Description: as §1, §2, §3
The JC-10 assay (Enzo Life Sciences, NY, United States) was used to evaluate mitochondrial membrane potential, the main bioenergetic parameter that regulates respiratory rate, ATP synthesis and reactive oxygen species generation. In cells with polarized mitochondrial membranes, the JC-10 dye localizes to the mitochondrial matrix and forms red fluorescent aggregates (540/590 nm). In cells with depolarized mitochondrial membranes, the JC-10 dye localizes in the cytoplasm and converts to a green fluorescent monomer (490/525 nm). Mitochondrial membrane potential was calculated as the ratio of the green and red fluorescence intensities within a well.
At the end of the 24 h exposure period, exposure media was removed from the plate. The plate wells were then washed with 1x phosphate buffered saline (1x PBS). After washing, the JC-10 reagent was suspended in fresh 1x PBS and 20 µl was added to each well at a final concentration of 20 μM (Enzo Life Sciences, NY, United States). The plate was incubated for 1 h at 37°C, and the fluorescence intensities at excitation/emission wavelengths of 490/525 nm and 540/590 nm were measured using a CLARIOstar (BMG Labtech, Offenburg, Germany) plate reader, respectively.
HTTS data were analyzed using a custom data analysis script in R v 1.2.5019 ([R Core Team, 2019]). […]

[4] = Homo sapiens, JEG-3, 24 h, read-out: Proliferation EC50 ± SD, JEG-3 cells, 24 h exposure
[5] = Homo sapiens, JEG-3, 24 h, read-out: Viability EC50 ± SD, JEG-3 cells, 24 h exposure, four-parameter fit, estimates meeting inclusion criteria
[6] = Homo sapiens, JEG-3, 24 h, read-out: MMP EC50 ± SD, JEG-3 cells, 24 h exposure, four-parameter fit, estimates meeting inclusion criteria
[7] = read-out: MMP EC50 ± SD, JEG-3 cells, 24 h exposure, four-parameter fit, estimates meeting inclusion criteria
[8] = JEG-3 cells, 24 h exposure, read-out: Proliferation EC50 ± SD
[9] = JEG-3 cells, 24 h exposure, four-parameter fit, estimates meeting inclusion criteria, read-out: Viability EC50 ± SD
[10] = JEG-3 cells, raw model output including fits that did not meet inclusion criteria, read-out: MMP EC50 ± SD (raw values)

SMILES | minimal effective concentration (JEG-3 cells [1]; Homo sapiens, JEG-3, 24 h) [µM] | EC50 (JEG-3 cells [1]; [4]) [µM] | cellular proliferation relative to vehicle control (rough binning) (JEG-3 cells [1]) | EC50 (JEG-3 cells [2]; [5]) [µM] | Viability ↓, lowest concentration at which the mean response value exceeded the mean control value ± 2*SD (rough binning) (JEG-3 cells [2]; JEG-3 cells) [µM] | cell viability relative to vehicle control (rough binning) (JEG-3 cells [2]) | minimal effective concentration (JEG-3 cells [3]; Homo sapiens, JEG-3, 24 h) [µM] | MMP relative to vehicle control (rough binning) (JEG-3 cells [3]) | EC50 (JEG-3 cells [3]; [6]) [µM] | Viability ↑, lowest concentration at which the mean response value exceeded the mean control value ± 2*SD (rough binning) (JEG-3 cells [2]; JEG-3 cells) [µM] | EC50 (JEG-3 cells [3]; [7]) [µM] | EC50 (JEG-3 cells [1]; [8]) [µM] | EC50 (JEG-3 cells [2]; [9]) [µM] | MMP ↓, lowest concentration at which the mean response value exceeded the mean control value ± 2*SD (rough binning) (JEG-3 cells [3]; JEG-3 cells) [µM] | EC50 (JEG-3 cells [3]; [10]) [µM] | EC50 (JEG-3 cells [2]; Homo sapiens, JEG-3, 24 h, read-out: viability EC50 ± SE, JEG-3 cells, 24 h) [µM] | Prolif ↓, lowest concentration at which the mean response value exceeded the mean control value ± 2*SD (rough binning) (JEG-3 cells [1]; JEG-3 cells, 24 h, decrease) [µM] | Prolif ↑, lowest concentration at which the mean response value exceeded the mean control value ± 2*SD (rough binning) (JEG-3 cells [1]; JEG-3 cells, 24 h, increase) [µM] | EC50 (JEG-3 cells [2]; JEG-3 cells, raw model output including fits that did not meet inclusion criteria, read-out: Viability EC50 ± SD (raw values)) [µM] | EC50 (JEG-3 cells [3]; Homo sapiens, JEG-3, 24 h, read-out: MMP EC50 ± SE, JEG-3 cells, 24 h) [µM]
O=C(O)C(F)(F)OC(F)(F)C(F)(F)OC(F)(F)C(F)(F)OC(F)(F)C(F)(F)C(F)(F)C(F)(F)F [Perfluoro-3,6,9-trioxatridecanoic acid] | 400 | 332 ± 34.1 | reduced cellular proliferation | 195 ± 54.6 | 300 | reduced cell viability | 50 | reduced MMP |  |  |  |  |  |  |  |  |  |  |  | 
O=C(O)C(F)(F)OC(F)(F)C(F)(F)OC(F)(F)C(F)(F)C(F)(F)C(F)(F)F [Perfluoro-3,6-dioxadecanoic acid] | 300 | 283 ± 25.7 | reduced cellular proliferation |  | 400 | reduced cell viability | 400 | reduced MMP | 350 ± 16.1 |  |  |  |  |  |  |  |  |  |  | 
O=C(O)C(F)(F)OC(F)(F)C(F)(F)OC(F)(F)F [Perfluoro-3,6-dioxaheptanoic acid] | 400 | 351 ± 11.8 | reduced cellular proliferation | 326 ± 85.7 |  | increased cell viability | 400 | reduced MMP | 368 | 200 | 368 ± 22.6 |  |  |  |  |  |  |  |  | 
O=C(O)C(F)(F)C(F)(F)OC(F)(F)F [Perfluoro-3-methoxypropanoic acid] |  | 204 ± 111 |  | 304 ± 28.2 |  |  |  |  | 93.1 ± 132 |  |  |  |  |  |  |  |  |  |  | 
O=S(=O)(O)C(F)(F)C(F)(F)C(F)(F)C(F)(F)F [Perfluorobutanesulfonic acid] |  |  |  |  |  | increased cell viability |  | reduced MMP |  | 50 |  | 223 ± 76.7 | 330 ± 35 | 50 |  |  |  |  |  | 
O=C(O)C(F)(F)C(F)(F)C(F)(F)F [Perfluorobutanoic acid] |  |  |  |  |  | increased cell viability |  | reduced MMP |  | 50 |  | 209 ± 360 | 226 ± 116 | 50 | 52 |  |  |  |  | 
O=C(O)C(F)(F)C(F)(F)C(F)(F)C(F)(F)C(F)(F)C(F)(F)C(F)(F)C(F)(F)C(F)(F)F [Perfluorodecanoic acid] | 250 | 234 ± 22.8 | reduced cellular proliferation | 181 ± 25.6 | 200 | reduced cell viability; also recorded: increased cell viability | 50 | reduced MMP | 236 ± 160 | 50 |  |  |  |  |  | 181 ± 26 |  |  |  | 
O=S(=O)(O)C(F)(F)C(F)(F)C(F)(F)C(F)(F)C(F)(F)C(F)(F)C(F)(F)F [Perfluoroheptanesulfonic acid] |  |  |  |  |  |  |  |  |  |  |  | 296 ± 201 |  |  | 874 ± 1750 |  | 232.5 | 23.25 | 1980 ± 2480 | 
O=S(=O)(O)C(F)(F)C(F)(F)C(F)(F)C(F)(F)C(F)(F)C(F)(F)F [Perfluorohexanesulfonic acid] | 350 | 252 ± 21.7 | reduced cellular proliferation | 289 ± 29.6 |  | increased cell viability |  |  | 86.2 | 50 | 86.6 ± 71.5 |  |  |  |  |  |  |  |  | 86.2 ± 72.3

Reference: paper PMC9081605, “A High-Throughput Toxicity Screen of 42 Per- and Polyfluoroalkyl Substances (PFAS) and Functional Assessment of Migration and Gene Expression in Human Placental Trophoblast Cells” (Frontiers in Toxicology, 2022)
